From US20260185163A1, “MEN1 MUTATIONS AND USES THEREOF” (DANA-FARBER CANCER INSTITUTE, INC., priority 2022, published 2026)

Columns and labels:
[1] = test system: MEN1 M327I/M327I MV4;11 cells; assay: dose-response assay, viable cell counts by flow cytometry; format: cell-based; conditions: Homo sapiens, 240 h; MV4;11 MEN1 M327I/M327I, 10 d of treatment
Experimental: MV4;11 and OCI-AML3 cell lines were passaged 24 h prior to nucleofection. The guide RNA (150 μmol) (sequence: 5′-[…]-3′) was added to Alt-R S.p. HiFi Cas9 nuclease (Integrated DNA Technologies) (125 μmol) followed by an incubation at room temperature (RT) for 20 min to allow formation of ribonucleoprotein (RNP) complexes. 2×10^5 cells were sedimented at 200 g for 10 min at RT, washed with PBS and resuspended in the SG Cell Line Nucleofector™ Solution (Lonza). […] Cells were replated in fresh medium+drug every 3 days and viable cells were counted using the LSRFortessa™ (BD Biosciences) flow cytometer. Cumulative cell growth was calculated over 28 days. […]
To determine Menin-inhibitor responses of MOLM13, MV4;11 or OCI-AML3 cell lines expressing MEN1 mutants, 3×10^3 cells were plated per well in a non-tissue culture treated 96-well plate. […] After 6 days, cells were split 1:7 and counts of viable cells in each well were determined after 10 d of treatment by flow cytometry (LSRFortessa™ with High-throughput sampler (HTS), BD Biosciences). Relative cell counts were calculated as % of DMSO control. The average of each triplicate was calculated and the mean of all replicates was plotted. […]

[2] = target: T1, M327I and T349M-mutant Menin (Homo sapiens, UniProt O00255, M322I); assay: isothermal titration calorimetry (ITC); format: binding; conditions: MEN1-M327I compared to MEN1-WT
T1 sequence (O00255 1-615 isoform O00255-1 M327I): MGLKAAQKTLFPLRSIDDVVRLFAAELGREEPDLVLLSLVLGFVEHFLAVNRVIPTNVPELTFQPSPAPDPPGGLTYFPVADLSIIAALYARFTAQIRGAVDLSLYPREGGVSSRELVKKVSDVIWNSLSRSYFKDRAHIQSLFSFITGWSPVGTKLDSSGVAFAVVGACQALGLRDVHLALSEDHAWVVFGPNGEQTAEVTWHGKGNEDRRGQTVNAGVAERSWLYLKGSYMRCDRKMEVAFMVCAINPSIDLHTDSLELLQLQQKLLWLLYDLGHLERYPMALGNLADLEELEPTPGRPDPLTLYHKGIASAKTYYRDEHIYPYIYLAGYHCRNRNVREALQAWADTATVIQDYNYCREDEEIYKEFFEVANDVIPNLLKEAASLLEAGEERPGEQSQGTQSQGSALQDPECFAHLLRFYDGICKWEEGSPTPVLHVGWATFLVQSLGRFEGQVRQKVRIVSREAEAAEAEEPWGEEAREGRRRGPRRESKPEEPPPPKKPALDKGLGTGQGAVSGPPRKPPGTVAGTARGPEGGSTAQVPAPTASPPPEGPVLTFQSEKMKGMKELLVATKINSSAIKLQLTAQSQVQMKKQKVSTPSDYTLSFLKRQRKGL
Experimental: All calorimetric experiments were carried out in ITC buffer (25 mM Hepes (pH 7.5), 200 mM NaCl, 1.0 mM TCEP) at 25° C. using an Affinity ITC from TA Instruments (New Castle, DE) equipped with autosampler. SNDX-5613 was dissolved in DMSO and diluted with the ITC buffer to final concentrations (50-200 μM. 1% DMSO). Protein sample was adjusted to contain 1% DMSO final concentration. The calorimetric cell, containing buffer or Menin (10 μM WT Menin, 5 μM M327I Menin, or 10 μM T349M Menin) was titrated by injecting 2.5 μl of SNDX-5613 solution with the concentration of 100 μM, 50 μM or 200 μM, respectively, 24 times with stirring speed at 75 rpm. The resulting isotherms were subtracted against buffer runs and fitted with a single-site model to yield thermodynamic parameters of ΔH and ΔS, stoichiometry, and KD using NanoAnalyze software (TA Instruments).

[3] = test system: MEN1-wild-type MV4;11 cells; assay: dose-response assay, viable cell counts by flow cytometry; format: cell-based, human; conditions: MV4;11 without the mutation, 10 d of treatment
Experimental: To determine Menin-inhibitor responses of MOLM13, MV4;11 or OCI-AML3 cell lines expressing MEN1 mutants, 3×10^3 cells were plated per well in a non-tissue culture treated 96-well plate. The Menin-inhibitors were titrated on these cells in the following dose-range: DMSO, 3.9 nM, 7.813 nM, 15.625 nM, […], 62.5 nM, 125 nM, 250 nM, 500 nM, 1000 nM. Cells were treated in triplicates on each plate and the experiment was repeated 4 times. After 6 days, cells were split 1:7 and counts of viable cells in each well were determined after 10 d of treatment by flow cytometry (LSRFortessa™ with High-throughput sampler (HTS), BD Biosciences). Relative cell counts were calculated as % of DMSO control. The average of each triplicate was calculated and the mean of all replicates was plotted. Error bars represent the standard error of means (SEM).

[4] = test system: unedited MV4;11 and OCI-AML3 cells; assay: in vitro clonal selection assay, growth of bulk cell populations; format: cell-based, human; conditions: 50 nM
Experimental: (§1) MV4;11 and OCI-AML3 cell lines were passaged 24 h prior to nucleofection. The guide RNA (150 μmol) (sequence: 5′-[…]-3′) was added to Alt-R S.p. HiFi Cas9 nuclease (Integrated DNA Technologies) (125 μmol) followed by an incubation at room temperature (RT) for 20 min to allow formation of ribonucleoprotein (RNP) complexes. 2×10^5 cells were sedimented at 200 g for 10 min at RT, washed with PBS and resuspended in the SG Cell Line Nucleofector™ Solution (Lonza). Cells, Alt-R™ Cas9 Electroporation Enhancer (Lonza) (120 μmol) and the HDR donor oligonucleotide containing the MEN1-M327I mutation as well as a silent mutation at the protospacer adjacent motif (PAM) site (120 μmol) (sequence:5′-[…]-3′) were added to the RNP complex. For wildtype (WT) control, phosphate buffered saline (PBS) (Gibco™, Fisher Scientific) was added to the resuspended cells. Nucleofection was performed using a 16-well 20 μl Nucleocuvette™ stripe (Lonza) in a 4D-Nucleofector™ X Unit (Lonza) (program FF-100). Cells were incubated overnight in RPMI-1640+10% FCS+1% P/S containing 1 μM Alt-R™ HDR enhancer V2 (Lonza) (or DMSO for WT control). […] Cells were replated in fresh medium+drug every 3 days and viable cells were counted using the LSRFortessa™ (BD Biosciences) flow cytometer. Cumulative cell growth was calculated over 28 days. […]

[5] = test system: CRISPR-Cas9 M327I-edited MV4;11 and OCI-AML3 cells; assay: as above; format: cell-based, human; conditions: 50 nM
Experimental: as §1

CCN(C(=O)c1cc(F)ccc1Oc1cncnc1N1CC2(CCN(C[C@H]3CC[C@H](NS(=O)(=O)CC)CC3)CC2)C1)C(C)C [SNDX-5613, revumenib] was tested, and the IC50 [1] was over 1000 nM, the “reduction in affinity, isothermal calorimetry” value [2] was “over 50 fold” and the IC50 [3] was “low nanomolar range”. The cell growth [4] was “stopped dividing shortly after exposure” and the cell growth [5] was “continued growing beyond 28 days”.
